# Assay results taken from US20170151200A1, “PROPHYLACTIC OR THERAPEUTIC AGENT FOR IDIOPATHIC INFLAMMATORY MYOPATHIES” (EA Pharma Co., Ltd., priority 2012, published 2017).
# Tests used:
# [1] = system: C-protein-induced mouse myositis model (CIM mouse); test: Inflammation score of muscular tissue in C-protein-induced mouse myositis model (CIM); type: in vivo; conditions: 0.75 g/kg BCAA or 20 mg/kg PSL oral consecutively from 3 days after immunization, 21 days after immunization, vs Vehicle group, FIG. 1
# Procedure: Using C-protein-induced mouse myositis model (C-protein-induced Myositis: CIM), the effect of BCAA on the inflammation of muscular tissues was examined. For antigen immunization of C57BL/6 mouse (female, 8-week-old), an adjuvant containing 200 μg C-protein and 100 μg killed tuberculosis bacterium (Mycobacterium butyricum), and Complete Freund's adjuvant (CFA) as a component was intradermally injected to the hindpaw sole and tail base, C-protein-free CFA injected to the base of forelimb, and 0.25 μg pertussis toxin was intraperitoneally injected. As an adjuvant control without immunization with an antigen, CFA was intradermally injected to the same sites. From three days after immunization, 0.75 g/kg BCAA (mixture of isoleucine, leucine and valine at a weight ratio of isoleucine:leucine:valine=1:2:1.2) or 20 mg/kg Prednisolone (PSL) was orally administered consecutively, and they were used as the BCAA administration group and the PSL administration group, respectively. In addition, 0.5% methylcellulose and 5% gamma cyclodextrin were orally administered instead of BCAA and the like to give the Vehicle administration group. After 21 days from immunization, the muscle was collected, and the levels of inflammation of quadriceps and flexor muscles were evaluated by the inflammation score. […]
# [2] = system: C-protein-induced mouse myositis model (CIM mouse); test: Muscle weight (quadriceps, hamstring/flexor muscles, triceps) in CIM mouse; type: in vivo; conditions: 21 days after immunization
# Procedure: (§1) Using C-protein-induced mouse myositis model (C-protein-induced Myositis: CIM), the effect of BCAA on the inflammation of muscular tissues was examined. For antigen immunization of C57BL/6 mouse (female, 8-week-old), an adjuvant containing 200 μg C-protein and 100 μg killed tuberculosis bacterium (Mycobacterium butyricum), and Complete Freund's adjuvant (CFA) as a component was intradermally injected to the hindpaw sole and tail base, C-protein-free CFA injected to the base of forelimb, and 0.25 μg pertussis toxin was intraperitoneally injected. As an adjuvant control without immunization with an antigen, CFA was intradermally injected to the same sites. […] After 21 days from immunization, the muscle was collected, and the levels of inflammation of quadriceps and flexor muscles were evaluated by the inflammation score.
# Quadriceps, flexor muscles and triceps were collected from the CIM mouse and control mouse (Ctrl) after 21 days from immunization, and the muscle weight was measured. […]
# Quadriceps, hamstrings, and triceps were collected from the CIM mouse and control mouse (Ctrl) of Example 5 after 21 days from the immunization, and the muscle weight was measured.
# [3] = system: C-protein-induced mouse myositis model (CIM mouse); test: Forelimb muscle strength by grip dynamometer in CIM mouse; type: in vivo; conditions: 20 days after immunization
# Procedure: as §1
# After 20 days from immunization, the muscle strength of the forelimb of each mouse was measured by a veterinary grip dynamometer MK-380CM/R (Muromachi Kikai Co., Ltd.). The measurement was performed 6 times for each animal, and the average thereof was determined. […]
# The muscle strength of the forelimb of each mouse was measured after 20 days from the immunization in Example 5 using veterinary grip dynamometer MK-380CM/R (Muromachi Kikai Co., Ltd.). The measurement was performed 6 times for each animal, and the average thereof was determined.
# [4] = system: C-protein-induced mouse myositis model (CIM mouse); test: Sectional area of fast muscle fiber (MHC IIB-positive) of triceps in CIM mouse; type: in vivo; conditions: triceps 21 days after immunization, 0.75 g/kg BCAA or 20 mg/kg PSL oral, histogram shift toward the left side = atrophy, FIG. 4
# Procedure: as §1
# Since steroid myopathy is predominantly developed in the fast muscle fiber (MHC IIB-positive fiber), atrophy of the muscle fiber of the CIM mouse was evaluated by measuring the sectional area of the muscle fiber. The boundary area of the fast muscle fiber and the muscle fiber of the section of the triceps collected 21 days after the immunization was labeled by immune fluorescent staining using anti-MHC IIB antibody and anti-Laminin antibody (Sigma), and the sectional area of the MHC IIB-positive muscle fiber was measured using Image J software (NIH). […]
# [5] = system: patients with polymyositis, dermatomyositis and inclusion body myositis; conditions: cited from earlier work
compound,measurement,setting,value
"C[C@]12C=CC(=O)C=C1CC[C@@H]1[C@@H]2[C@@H](O)C[C@@]2(C)[C@H]1CC[C@]2(O)C(=O)CO [PSL, Prednisolone]",inflammation score,[1],significantly suppressed
same,muscle weight,"[2]; CIM mouse of Example 5, 0.25, 0.75 or 2.25 g/kg BCAA + 20 mg/kg PSL, or 20 mg/kg PSL alone, oral, FIG. 6",did not increase
same,muscle weight,"[2]; CIM mouse, 0.75 g/kg BCAA or 20 mg/kg PSL oral, quadriceps, flexor muscles, triceps, FIG. 2",did not show improvement
same,strength of the forelimb muscle,"[3]; CIM mouse of Example 5, 0.25, 0.75 or 2.25 g/kg BCAA + 20 mg/kg PSL, or 20 mg/kg PSL alone, oral, FIG. 7",did not increase
same,muscle strength of the forelimb,"[3]; CIM mouse, 0.75 g/kg BCAA or 20 mg/kg PSL oral, FIG. 3",improvement effect was weak
same,distribution of fast muscle fiber sectional area (muscle fiber atrophy),[4],tendency was stronger
Anakinra: IL-1 receptor antagonist,anti-inflammatory effect,"[5]; polymyositis and dermatomyositis, Ann Rheum Dis. 2011;70:A80-A81",has not been observed
Infliximab: anti-TNF antibody effective for rheumatoid arthritis,effect on inflammation in patients,"[5]; patients with polymyositis, dermatomyositis and inclusion body myositis, Ann Rheum Dis. 2008;67(12):1670-7",aggravation of inflammation and activation of type I interferons
